This is an account of results in paper PMC10143232, “Dihydropyrimidone Derivatives as Thymidine Phosphorylase Inhibitors: Inhibition Kinetics, Cytotoxicity, and Molecular Docking” (Molecules, 2023).

Counter-ions that a name gives are not always drawn. Like-named read-outs stand apart in the source and are kept apart here.

In data set [1] the target is T1, Thymidine phosphorylase (TP) (Escherichia coli, UniProt P07650).
T1 construct: purchased Sigma Aldrich, USA
Put plainly: Thymidine phosphorylase inhibition assay (spectrophotometric, 290 nm). To be noted: for IC50 / Thymidine Phosphorylase Inhibitory Activity % Inhibition / TP inhibitory activity (in words): E. coli TP; for IC50: n = 3, NA: not active, read-out: Thymidine Phosphorylase Inhibitory Activity IC50 ± SEM; for inhibition at 500 µM / Thymidine Phosphorylase Inhibitory Activity % Inhibition: test compound 10 µL of 0.5 mM in 200 µL, thymidine substrate, 30 °C, pH 7.0; for TP inhibitory activity (in words): inactive = less than 50% inhibition. The format is biochemical, E. coli. The method, then:
Thymidine phosphorylase (source: E. coli, EC Number 2.4.2.4), thymidine (substrate), and potassium phosphate monobasic (as buffer) were acquired from Sigma Aldrich, USA. […] Dimethylsulfoxide (DMSO), used as a solvent, was obtained from Fisher Scientific, Schwerte, Germany.
Reaction was performed in 96-well plates and in triplicates. The 200 µL reaction mixture was comprised of 10 µL of the test compound (0.5 mM; dissolved in DMSO), 150 µL of potassium phosphate buffer (pH 7.0, 50 mM), and 20 µL of TP enzyme (0.058 unit/well). The 96-well plate containing all these reagents was then incubated at 30 °C for 10 min.
SoftMax Pro 4.8 software (Molecular Devices, San Jose, CA, USA) was used to analyse the results.
EZ-FIT, enzyme kinetics software (Perrella Scientific, Inc., Amherst, GA, USA) was used to calculate the IC50 values. In order to analyse the kinetic parameter, Grafit version 7.0 (Erithacus Software Ltd., Horley, UK) was used.

A further data set in a line: MTT cytotoxicity assay. The class given is cell-based. To be noted: 3T3 mouse fibroblast cells, 48 h, test compounds 1 to 30 µM, NC: non-cytotoxic; for viability at 48 h: read-out: Cytotoxicity Studies Cell Viability (%). The method, then:
Cytotoxicity of active compounds were evaluated employing a standard MTT calorimetric assay. Mouse fibroblast (3T3 cell line) acquired from American Type Culture Collection (ATCC), Virginia, USA, was cultured in DMEM (Dulbecco’s modified eagle medium). In total, 5% FBS (fetal bovine serum), penicillin (100 IU/mL), and streptomycin ([…]) were then added to the medium in […] flasks, and kept in a CO2 incubator at 37 °C. The harvested cell was then diluted with a specific medium. Haemocytometer was used for the quantification of cells. After that, the culture of cell having concentration of 5x104 (cells/mL) was prepared, inoculated into 96-well plates (100 µL/well), and then incubated overnight. After incubation, the old medium was removed, and fresh medium (200 µL) was added. Then different concentrations of test compounds (ranging from 1 to 30 µM) were added. After incubation of 48 h, each well received 200 µL of MTT dye (0.5 mg/mL), and further incubated for a duration of 4 h. After 4 h, 100 µL of DMSO was introduced into each well of the 96-well plate. The reduction of MTT to formazan was measured by recording absorbance at 540 nm with the help of a microplate reader (SpectraMax 384, Molecular Devices, San Jose, CA, USA).
(Formazan colour is commonly taken as a measure of viable cells.)

[2] abbreviates: pH 7, E. coli TP, read-out: Thymidine Phosphorylase Inhibitory Activity % Inhibition.

T1 sequence (P07650 whole entry): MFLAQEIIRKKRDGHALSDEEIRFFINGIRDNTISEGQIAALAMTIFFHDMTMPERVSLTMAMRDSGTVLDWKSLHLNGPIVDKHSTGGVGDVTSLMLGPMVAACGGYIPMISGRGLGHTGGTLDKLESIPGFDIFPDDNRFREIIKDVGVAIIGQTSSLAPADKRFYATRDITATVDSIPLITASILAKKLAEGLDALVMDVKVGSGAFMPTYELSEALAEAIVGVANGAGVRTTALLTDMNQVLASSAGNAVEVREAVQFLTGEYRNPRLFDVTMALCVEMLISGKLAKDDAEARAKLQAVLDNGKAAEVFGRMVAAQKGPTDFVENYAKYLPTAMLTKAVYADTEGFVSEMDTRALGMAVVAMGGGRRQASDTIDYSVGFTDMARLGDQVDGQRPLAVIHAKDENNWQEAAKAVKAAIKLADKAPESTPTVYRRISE

`CCOc1ccc(C2NC(=O)NC(C)=C2C(=O)OC)cc1` (centres unmarked) [Compound 2, Methyl 4-(4-ethoxyphenyl)-6-methyl-2-oxo-1,2,3,4-tetrahydropyrimidine-5-carboxylate]: the concentration for half-maximal inhibition (IC50) – broadly, the midpoint of a concentration-inhibition curve – in data set [1] came out at 389 ± 6.2 µM. The inhibition (in general, the relative decrease from the control value, in per cent) at 500 µM in data set [1] (setting [2]) amounted to 78.2%. In addition, the viability (in general, a per cent measure of how many cells are alive, often set against a control) at 48 h in “MTT cytotoxicity assay” came out at 67%.
Take `COC(=O)C1=C(C)NC(=O)NC1c1ccc2ccccc2c1` (centres unmarked) [Compound 3, Methyl 6-methyl-4-(naphthalen-2-yl)-2-oxo-1,2,3,4-tetrahydropyrimidine-5-carboxylate]: in data set [1], the “Thymidine Phosphorylase Inhibitory Activity % Inhibition” value is recorded as 38.1%.
Consider `CCC1NC(=O)NC(C)=C1C(=O)OC` (centres unmarked) [Compound 4, Methyl 4-ethyl-6-methyl-2-oxo-1,2,3,4-tetrahydropyrimidine-5-carboxylate], for which, in data set [1] (setting [2]), the inhibition at 500 µM worked out at 46.8%.
On to `COC(=O)C1=C(C)NC(=O)NC1c1ccc(OC)cc1` (centres unmarked) [Compound 5, Methyl 4-(4-methoxyphenyl)-6-methyl-2-oxo-1,2,3,4-tetrahydropyrimidine-5-carboxylate], for which, in data set [1], the IC50 is 387.4 ± 2 µM. Further, the inhibition at 500 µM in data set [1] (setting [2]) came to 52.9%. Further, the viability at 48 h in the data set “MTT cytotoxicity assay” was 72%.
Consider `COC(=O)C1=C(C)NC(=O)NC1c1ccccc1Cl` (centres unmarked) [Compound 6, Methyl 4-(2-chlorophenyl)-6-methyl-2-oxo-1,2,3,4-tetrahydropyrimidine-5-carboxylate], for which the “TP inhibitory activity (in words)” value in data set [1] is “inactive”. In addition, the inhibition at 500 µM in data set [1] (setting [2]) is -65.3%.
Regarding `COC(=O)C1=C(C)NC(=O)NC1c1ccccc1OC` (centres unmarked) [Compound 7, Methyl 4-(2-methoxyphenyl)-6-methyl-2-oxo-1,2,3,4-tetrahydropyrimidine-5-carboxylate], the inhibition at 500 µM in data set [1] (setting [2]) is -19.3%.
For `COC(=O)C1=C(C)NC(=O)NC1c1ccc2ccccc2c1` (centres unmarked) [Compound 8, Methyl 6-methyl-4-(naphthalen-2-yl)-2-oxo-1,2,3,4-tetrahydropyrimidine-5-carboxylate], the “Thymidine Phosphorylase Inhibitory Activity % Inhibition” value in data set [1] is given as −10.3%.
With `COC(=O)C1=C(C)NC(=O)NC1c1ccco1` (centres unmarked) [Compound 9, Methyl 4-(furan-2-yl)-6-methyl-2-oxo-1,2,3,4-tetrahydropyrimidine-5-carboxylate], the IC50 in data set [1] was found to be 373.6 ± 2.2 µM. The inhibition at 500 µM in data set [1] (setting [2]) was determined as 78.9%. For the same compound, the viability at 48 h in the data set “MTT cytotoxicity assay” amounted to 72%.
`CCCCC1NC(=O)NC(C)=C1C(=O)OC` (centres unmarked) [Compound 10, Methyl 4-butyl-6-methyl-2-oxo-1,2,3,4-tetrahydropyrimidine-5-carboxylate]: in data set [1], the IC50 was 389 ± 0.6 µM. Besides, the inhibition at 500 µM in data set [1] (setting [2]) was found to be 92.7%. In addition, in “MTT cytotoxicity assay”, the viability at 48 h worked out at 66%.
For `COC(=O)C1=C(C)NC(=O)NC1c1ccc(C)o1` (centres unmarked) [Compound 11, Methyl 6-methyl-4-(5-methylfuran-2-yl)-2-oxo-1,2,3,4-tetrahydropyrimidine-5-carboxylate] the same measures were 386 ± 0.6 µM, 76.9% and 77%.
For `COC(=O)C1=C(C)NC(=O)NC1c1ccc(O)cc1` (centres unmarked) [Compound 13, Methyl 4-(4-hydroxyphenyl)-6-methyl-2-oxo-1,2,3,4-tetrahydropyrimidine-5-carboxylate] the same measures were 448.9 ± 4.1 µM, 56.2% and 72%.
Turning to `COC(=O)C1=C(C)NC(=O)NC1c1ccc(OC)cc1F` (centres unmarked) [Compound 14, Methyl 4-(2-fluoro-4-methoxyphenyl)-6-methyl-2-oxo-1,2,3,4-tetrahydropyrimidine-5-carboxylate], in data set [1], the IC50 was found to be 397.1 ± 0.1 µM. In addition, the inhibition at 500 µM in data set [1] (setting [2]) was 68.4%. Also, the viability at 48 h in the data set “MTT cytotoxicity assay” turned out to be 71%.
As to `COC(=O)C1=C(C)NC(=O)NC1c1cccc(O)c1` (centres unmarked) [Compound 15, Methyl 4-(3-hydroxyphenyl)-6-methyl-2-oxo-1,2,3,4-tetrahydropyrimidine-5-carboxylate], the inhibition at 500 µM in data set [1] (setting [2]) is 38.9%.
As for `COC(=O)C1=C(C)NC(=O)NC1c1ccc(F)c(OC)c1` (centres unmarked) [Compound 16, Methyl 4-(4-fluoro-3-methoxyphenyl)-6-methyl-2-oxo-1,2,3,4-tetrahydropyrimidine-5-carboxylate], in data set [1] (setting [2]), the inhibition at 500 µM came out at 47.8%.
Regarding `COC(=O)C1=C(C)NC(=O)NC1c1cc(OC)ccc1OC` (centres unmarked) [Compound 17, Methyl 4-(2,5-dimethoxyphenyl)-6-methyl-2-oxo-1,2,3,4-tetrahydropyrimidine-5-carboxylate], the inhibition at 500 µM in data set [1] (setting [2]) was 46.5%.
Regarding `COC(=O)C1=C(C)NC(=O)NC1c1c(Cl)cccc1Cl` (centres unmarked) [Compound 18, Methyl 4-(2,6-dichlorophenyl)-6-methyl-2-oxo-1,2,3,4-tetrahydropyrimidine-5-carboxylate], in data set [1], the “TP inhibitory activity (in words)” value was “inactive”. Also, the inhibition at 500 µM in data set [1] (setting [2]) was -15.4%.
As for `COC(=O)C1=C(C)NC(=O)NC1c1ccc(C(C)C)cc1` (centres unmarked) [Compound 19, Methyl 4-(4-isopropylphenyl)-6-methyl-2-oxo-1,2,3,4-tetrahydropyrimidine-5-carboxylate], the inhibition at 500 µM in data set [1] (setting [2]) was -18.5%.
Regarding `COC(=O)C1=C(C)NC(=O)NC1c1cccc(OC)c1OC` (centres unmarked) [Compound 20, Methyl 4-(2,3-dimethoxyphenyl)-6-methyl-2-oxo-1,2,3,4-tetrahydropyrimidine-5-carboxylate], in data set [1], the IC50 came out at 414.7 ± 1.6 µM. The inhibition at 500 µM in data set [1] (setting [2]) worked out at 67.8%. The viability at 48 h in the data set “MTT cytotoxicity assay” turned out to be 62%.
With `COC(=O)C1=C(C)NC(=O)NC1c1ccc(OC)c(OCc2ccccc2)c1` (centres unmarked) [Compound 23, Methyl 4-(3-(benzyloxy)-4-methoxyphenyl)-6-methyl-2-oxo-1,2,3,4-tetrahydropyrimidine-5-carboxylate], the inhibition at 500 µM in data set [1] (setting [2]) is 7.5%.
On the same count and under the same terms, the value for `COC(=O)C1=C(C)NC(=O)NC1c1cccs1` (centres unmarked) [Compound 27, Methyl 6-methyl-2-oxo-4-(thiophen-2-yl)-1,2,3,4-tetrahydropyrimidine-5-carboxylate] was 47.1%; that for `COC(=O)C1=C(C)NC(=O)NC1c1cccc(OCc2ccccc2)c1` (centres unmarked) [Compound 31, Methyl 4-(3-(benzyloxy)phenyl)-6-methyl-2-oxo-1,2,3,4-tetrahydropyrimidine-5-carboxylate] was -41.9%.
On to `COC(=O)C1=C(C)NC(=O)NC1c1ccccc1F` (centres unmarked) [Compound 35, Methyl 4-(2-fluorophenyl)-6-methyl-2-oxo-1,2,3,4-tetrahydropyrimidine-5-carboxylate], for which the “TP inhibitory activity (in words)” value in data set [1] is “activity was lost”. The inhibition at 500 µM in data set [1] (setting [2]) came to 9.6%.
As for `COC(=O)C1=C(C)NC(=O)NC1c1ccccc1OCc1ccccc1` (centres unmarked) [Compound 36, Methyl 4-(2-(benzyloxy)phenyl)-6-methyl-2-oxo-1,2,3,4-tetrahydropyrimidine-5-carboxylate], in data set [1] (setting [2]), the inhibition at 500 µM came out at 5.3%.
In the case of `COC(=O)C1=C(C)NC(=O)NC1c1ccc(Cl)cc1Cl` (centres unmarked) [Compound 39, Methyl 4-(2,4-dichlorophenyl)-6-methyl-2-oxo-1,2,3,4-tetrahydropyrimidine-5-carboxylate], in data set [1], the “TP inhibitory activity (in words)” value was “inactive”. The inhibition at 500 µM in data set [1] (setting [2]) was -1.8%.
Regarding `C[C@@H]1C[C@@H]([C@H](O)CC2CC(=O)NC(=O)C2)C(=O)[C@@H](C)C1` [Cycloheximide, reference compound], in “MTT cytotoxicity assay”, the viability at 48 h was 30%. For the same compound, the IC50 at 48 h in “MTT cytotoxicity assay” (read-out: Cytotoxicity Studies IC50 ± SD) turned out to be 0.8 ± 0.2 µM.
Take `N=C1CCCN1Cc1[nH]c(=O)[nH]c(=O)c1Cl` [Tipiracil-HCl, reference compound]: the inhibition at 500 µM in data set [1] (pH 7, read-out: Thymidine Phosphorylase Inhibitory Activity % Inhibition, E. coli TP) is 92%.
